Earlier results on one compound are cited in patent US9987239B1, “Pharmaceutical retinoid preparation for topical use” (Rey Ventures, LLC, priority 2017, dated 2018).

For the compound `COc1ccc(-c2ccc3cc(C(=O)O)ccc3c2)cc1C12CC3CC(CC(C3)C1)C2` [adapalene, 6-[3-(1-adamantyl)-4-methoxyphenyl] naphthalene-2-carboxylic], the “solubility of adapalene in ethyl alcohol” value (ethyl alcohol) is 1000 µg/mL. In addition, the “solubility of adapalene (water)” value (water) was 0.004 µg/mL.
